The compounds below were run against T1, human MAGL (His-hMAGL) (Homo sapiens, UniProt Q99685) (assay: Measurement of MAGL inhibitory activity by absorbance). Settings: 10 μM test compound; substrate p-nitrophenyl acetate, absorbance at 405 nm.
T1 construct: made in house; host or cells: Escherichia coli BL21(DE3)
T1 sequence (Q99685 1-303): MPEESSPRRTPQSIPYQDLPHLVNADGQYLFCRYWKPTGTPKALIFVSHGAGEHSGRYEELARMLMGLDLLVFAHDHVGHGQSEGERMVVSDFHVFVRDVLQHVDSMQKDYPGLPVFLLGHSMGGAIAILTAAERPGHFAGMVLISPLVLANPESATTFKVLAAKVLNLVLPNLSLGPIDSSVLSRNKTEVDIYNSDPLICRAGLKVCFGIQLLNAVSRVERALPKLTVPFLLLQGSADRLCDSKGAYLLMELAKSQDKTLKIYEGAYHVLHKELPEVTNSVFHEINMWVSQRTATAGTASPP
Format: biochemical
Excerpt: (1) Cloning of Human MGLL Encoding MAGL Protein and Construction of Expression Plasmid
Human MGLL cDNA was obtained by PCR using human ORF Clone (DNAForm; Clone ID: 100004585) as a template. For PCR, two kinds of primers: […]
The obtained PCR product was digested with Bam HI and Not I (Takara Bio Inc.), inserted into the Bam HI/Not I site of pET21HH(V) (pET21a (Novagen) inserted with His x6 and TEV Protease recognition sequence) by using Ligation High (Toyobo Co., Ltd.), and introduced into ECOS™ JM109 (Nippon Gene Co., Ltd.), whereby expression plasmid pET21HH(V)/His-hMGLLv2 for Escherichia coli was constructed. (2) Preparation of Recombinant Polyhistidine Tagged Human MAGL Protein
Recombinant His-hMAGL protein was prepared by transforming ECOS™ Competent E. coli BL21(DE3) (Nippon Gene Co., Ltd.) with the pET21HH(V)/His-hMGLLv2 plasmid prepared above. Escherichia coli obtained by transformation was inoculated to 10 mL of LB medium (1% peptone, 0.5% yeast extract, 0.5% sodium chloride, 0.01% ampicillin), and cultured at 30° C. for 16 hr. […] When the turbidity of the culture medium reached about 500 Klett unit, the culture temperature was lowered to 16° C., isopropyl-β-D-thiogalactopyranoside (IPTG) was added to a final concentration of 1 mM, and the mixture was further cultured for 19 hr. After the completion of culture, the culture medium was centrifuged (4° C., 6,000 rpm, 10 min) to give His-hMAGL expression Escherichia coli. Then, His-hMAGL expression Escherichia coli was suspended in 50 mM Tris-HCl (pH 8.0, 100 ml) containing 1% Triton X-100, 20 mM imidazole, 3 mM DTT, 5 U/mL Benzonase (Merck) and 150 mM NaCl, sufficiently cooled, and subjected to sonication at […]=60%, 15 sec/ON, 30 sec/OFF for 3 min using ¾″ solid type crushed horn of BRANSON Digital Sonifier 450 (Central Scientific Commerce, Inc.). Furthermore, the homogenate was centrifuged (4° C., 15,000 rpm, 15 min) and the supernatant was obtained. As the purification apparatus, AKTA explorer 10s (GE Healthcare Japan Corporation) was used at 4° C. To the obtained supernatant was added 5M NaCl to the final salt concentration of 0.3 M, and the mixture was flown through and adsorbed to 5 mL of Ni-NTA Superflow Cartridges (QIAGEN) equilibrated in advance with buffer A (50 mM Tris-HCl (pH 8.0) containing 0.05% TritonX-100, 1 mM DTT, 300 mM NaCl). The column was sufficiently washed with buffer A containing 20 mM imidazole and His-hMAGL was eluted with buffer A containing imidazole at a final concentration of 250 mM. The eluate was further subjected to gel filtration using HiLoad 26/600 Superdex 200 pg (GE Healthcare Japan Corporation) equilibrated with 50 mM Tris-HCl pH 8.0 containing 10% glycerol, 0.05% TritonX-100, 1 mM DTT, 150 mM NaCl. The eluted fraction was concentrated by Amicon Ultra-15 10K (Merck Millipore) to give purified His-hMAGL protein. The protein concentration was measured by BCA Protein Assay Kit (Thermo Fisher Scientific) using BSA as the standard.
(3) Measurement of MAGL Inhibitory Activity
His-hMAGL obtained above was diluted with enzyme reaction buffer (10 mM Tris-HCl, pH 7.5, 1 mM EDTA, 0.1 (w/v) % Triton X-100) to a concentration of 60 ng/mL. […] Thereafter, to each well was added 750 μM p-nitrophenyl acetate (Wako Pure Chemical Industries, Ltd.) by 5 μL, and the absorbance at 405 nm was measured every 2 minutes up to 10 minutes by EnVision (PerkinElmer). The amount of change was obtained by subtracting the absorbance measured immediately after the start of the reaction from the absorbance measured 10 min after the start of the reaction.
MAGL inhibitory rate (%) was calculated according to the following calculation formula. (1−(absorbance change amount of test compound addition group−absorbance change amount of enzyme addition-free group)[…](absorbance change amount of test compound addition-free group−absorbance change amount of enzyme addition-free group))×100

inhibition at 10 µM [%] | SMILES
93 | O=C(c1nccs1)N1CCN(C2CC(=O)N(c3ccc4ccn(-c5ccc(F)cc5)c4c3)C2)CC1 (stereo not drawn) [Example 20, 1-(1-(4-fluorophenyl)-1H-indol-6-yl)-4-(4-(1,3-thiazol-2-ylcarbonyl)piperazin-1-yl)pyrrolidin-2-one]
92 | O=C(c1nccs1)N1CCN(C2CC(=O)N(c3ccc4c(c3)oc3ccccc34)C2)CC1 (stereo not drawn) [Example 72, 1-(Dibenzo[b,d]furan-3-yl)-4-(4-(1,3-thiazol-2-ylcarbonyl)piperazin-1-yl)pyrrolidin-2-one]
91 | O=C(c1nccs1)N1CCN(C2CC(=O)N(c3ccc(Oc4ccncc4)cc3)C2)CC1 (stereo not drawn) [Example 19, 1-(4-(pyridin-4-yloxy)phenyl)-4-(4-(1,3-thiazol-2-ylcarbonyl)piperazin-1-yl)pyrrolidin-2-one]
93 | O=C(c1nccs1)N1CCN(C2CC(=O)N(c3cccc(-c4cccnc4)c3)C2)CC1 (stereo not drawn) [Example 65, 1-(3-(pyridin-3-yl)phenyl)-4-(4-(1,3-thiazol-2-ylcarbonyl)piperazin-1-yl)pyrrolidin-2-one]
99 | O=C(c1nccs1)N1CCN(C2CC(=O)N(c3ccc4c(cnn4-c4ccc(F)cc4)c3)C2)CC1 (stereo not drawn) [Example 85, 1-(1-(4-Fluorophenyl)-1H-indazol-5-yl)-4-(4-(1,3-thiazol-2-ylcarbonyl)piperazin-1-yl)pyrrolidin-2-one]
90 | O=C(c1nccs1)N1CCN(C2CC(=O)N(c3ccc4cc(Br)ccc4c3)C2)CC1 (stereo not drawn) [Example 71, 1-(6-brorno-2-naphthyl)-4-(4-(1,3-thiazol-2-ylcarbonyl)piperazin-1-yl)pyrrolidin-2-one]
98 | O=C(c1nccs1)N1CCN(C2CC(=O)N(c3ccc(Oc4ccc(F)c(F)c4)cc3)C2)CC1 (stereo not drawn) [Example 12, 1-(4-(3,4-difluorophenoxy)phenyl)-4-(4-(1,3-thiazol-2-ylcarbonyl)piperazin-1-yl)pyrrolidin-2-one]
98 | O=C(c1nccs1)N1CCN(C2CC(=O)N(c3ccc(OCc4ccccc4)cc3)C2)CC1 (stereo not drawn) [Example 60, 1-(4-(Benzyloxy)phenyl)-4-(4-(1,3-thiazol-2-ylcarbonyl)piperazin-1-yl)pyrrolidin-2-one]
97 | COc1ccccc1Oc1ccc(N2CC(N3CCN(C(=O)c4nccs4)CC3)CC2=O)cc1 (stereo not drawn) [Example 45, 1-(4-(2-methoxyphenoxy)phenyl)-4-(4-(1,3-thiazol-2-ylcarbonyl)piperazin-1-yl)pyrrolidin-2-one]
95 | O=C(c1nccs1)N1CCN(C2CC(=O)N(c3cccc(I)c3)C2)CC1 (stereo not drawn) [Example 75, 1-(3-iodophenyl)-4-(4-(1,3-thiazol-2-ylcarbonyl)piperazin-1-yl)pyrrolidin-2-one]
87 | N#Cc1cccnc1N1CCN(C2CC(=O)N(c3ccc(Oc4ccccc4)cc3)C2)CC1 (stereo not drawn) [Example 7, 2-(4-(5-Oxo-1-(4-phenoxyphenyl)pyrrolidin-3-yl)piperazin-1-yl)nicotinonitrile]
96 | O=C(c1nccs1)N1CCN(C2CC(=O)N(c3ccc4[nH]ncc4c3)C2)CC1 (stereo not drawn) [Example 47, 1-(1H-indazol-5-yl)-4-(4-(1,3-thiazol-2-ylcarbonyl)piperazin-1-yl)pyrrolidin-2-one]
90 | O=C(c1nccs1)N1CCN(C2CC(=O)N(c3ccc(C4CC4)cc3)C2)CC1 (stereo not drawn) [Example 57, 1-(4-Cyclopropylphenyl)-4-(4-(1,3-thiazol-2-ylcarbonyl)piperazin-1-yl)pyrrolidin-2-one]
98 | O=C(c1nccs1)N1CCN(C2CC(=O)N(c3ccc4c(ccn4-c4ccc(C(F)(F)F)cn4)c3)C2)CC1 (stereo not drawn) [Example 53, 4-(4-(1,3-Thiazol-2-ylcarbonyl)piperazin-1-yl)-1-(1-(5-(trifluoromethyl)pyridin-2-yl)-1H-indol-5-yl)pyrrolidin-2-one]
95 | O=C(c1nccs1)N1CCN(C2CC(=O)N(c3ccc4c(ccn4-c4ccc(F)cn4)c3)C2)CC1 (stereo not drawn) [Example 82, 1-(1-(5-fluoropyridin-2-yl)-1H-indol-5-yl)-4-(4-(1,3-thiazol-2-ylcarbonyl)piperazin-1-yl)pyrrolidin-2-one]
99 | O=C(c1nccs1)N1CCN(C2CC(=O)N(c3ccc(Cc4ccccc4)cc3)C2)CC1 (stereo not drawn) [Example 38, 1-(4-benzylphenyl)-4-(4-(1,3-thiazol-2-ylcarbonyl)piperazin-1-yl)pyrrolidin-2-one]
96 | O=C(c1nccs1)N1CCN(C2CC(=O)N(c3cccc(Nc4ccc(F)cc4)c3)C2)CC1 (stereo not drawn) [Example 77, 1-(3-((4-Fluorophenyl)amino)phenyl)-4-(4-(1,3-thiazol-2-ylcarbonyl)piperazin-1-yl)pyrrolidin-2-one]
98 | O=C(c1nccs1)N1CCN(C2CC(=O)N(c3ccc4c(ccn4-c4ccc(F)cc4)c3)C2)CC1 (stereo not drawn) [Example 14, 1-(1-(4-Fluorophenyl)-1H-indol-5-yl)-4-(4-(1,3-thiazol-2-ylcarbonyl)piperazin-1-yl)pyrrolidin-2-one]
90 | O=C(c1nccs1)N1CCN(C2CC(=O)N(c3cccc(-c4ccccn4)c3)C2)CC1 (stereo not drawn) [Example 64, 1-(3-(pyridin-2-yl)phenyl)-4-(4-(1,3-thiazol-2-ylcarbonyl)piperazin-1-yl)pyrrolidin-2-one]
93 | O=C(c1ccc(Cl)o1)N1CCN(C2CC(=O)N(c3ccc(Oc4ccccc4)cc3)C2)CC1 (stereo not drawn) [Example 8, 4-(4-(5-chloro-2-furoyl)piperazin-1-yl)-1-(4-phenoxyphenyl)pyrrolidin-2-one]
69 | O=C(N1CCCC1)N1CCN(C2CC(=O)N(c3ccc(Oc4ccccc4)cc3)C2)CC1 (stereo not drawn) [Example 21, 1-(4-Phenoxyphenyl)-4-(4-(pyrrolidin-1-ylcarbonyl)piperazin-1-yl)pyrrolidin-2-one]
98 | COc1cc(Oc2ccccc2)ccc1N1CC(N2CCN(C(=O)c3nccs3)CC2)CC1=O (stereo not drawn) [Example 13, 1-(2-Methoxy-4-phenoxyphenyl)-4-(4-(1,3-thiazol-2-ylcarbonyl)piperazin-1-yl)pyrrolidin-2-one]
91 | O=C(c1nccs1)N1CCN(C2CC(=O)N(c3cccc4ccccc34)C2)CC1 (stereo not drawn) [Example 70, 1-(1-naphthyl)-4-(4-(1,3-thiazol-2-ylcarbonyl)piperazin-1-yl)pyrrolidin-2-one]

Same assay, conditions: 10 μM test compound; substrate p-nitrophenyl acetate, absorbance at 405 nm; 10 µM

Inhibition at 10 μM (%) | SMILES
99 | O=C(c1nccs1)N1CCN(C2CC(=O)N(c3ccc4c(ccn4-c4ccc(F)cc4)c3)C2)CC1 (stereo not drawn) [Example 23, 1-(1-(4-Fluorophenyl)-1H-indol-5-yl)-4-(4-(1,3-thiazol-2-ylcarbonyl)piperazin-1-yl)pyrrolidin-2-one (optical isomer)]

Source: US9624170B2, “4-(piperrazin-1-yl)-pyrrolidin-2-one compounds as monoacylglycerol lipase (MAGL) inhibitors” (TAKEDA PHARMACEUTICAL COMPANY LIMITED, priority 2013, dated 2017)
